These results are taken from patent US4992534A, “3'-O-,5'-O-derivatives of 2'-deoxy-5-fluorouridine” (Otsuka Pharmaceutical Co., Ltd., priority 1987, dated 1991).

This experiment has as its system Sarcoma-180. The experiment can be described thus: Antitumor test against subcutaneously transplanted Sarcoma-180 in ICR mice (Pharmacological Test 1). The settings on record: Sarcoma-180 s.c. in ICR mice, tail vein once a day for 7 consecutive days from 24 h after transplantation, tumor weight on 10th day. It counts as in vivo. The procedure:
Sarcoma-180 subcultured in ascites of ICR mice was diluted with a physiological saline and subcutaneously transplanted into the backs of ICR mice in an amount of 2 ×10^7 cells each. Twenty-four hours after the transplantation, a test compound dissolved in sterilized physiological saline was administered to the tail vein of each of the mice once a day for 7 consecutive days.
The solid tumor was isolated from under the dorsal skin of mice on the 10th day after the transplantation to measure the weight of the tumor There was determined the ratio (T/C) of the weight of tumor (T) of the test compound group to the weight of tumor (C) of the control group.

As for “3'-O-(5-bromo-2-thenyl)-2'-deoxy-5-fluoro-5'-O- glycyluridine hydrochloride [Test Compound 2]”, the “50% tumor inhibition dose (ED50), dose at which T/C of tumor weight is 0.5” value came out at 7 mg/kg.
In the case of `Cl.NCC(=O)OC[C@H]1O[C@@H](n2cc(F)c(=O)[nH]c2=O)C[C@@H]1OCc1ccc(Cl)s1` [Test Compound 1, 3'-O-(5-chloro-2-thenyl)-2'-deoxy-5-fluoro-5'-O-glycyluridine hydrochloride], for the setting “Mus musculus, sc, 240 h, read-out: 50% tumor inhibition dose (ED50), dose at which T/C of tumor weight is 0.5”, the ED50 came to 5 mg/kg.
